Results on seven compounds are retold here after ChEMBL document CHEMBL1128933, “Structural comparison of alkylpolyamine analogues with potent in vitro antitumor or antiparasitic activity” (Bioorg Med Chem Lett, 1996).

In experiment [1] the test system is Trypanosoma brucei. Description: Compound was evaluated for growth brucei K243 As-10-3 strain. The class given is functional, organism-based.
In experiment [2] the test system is Trypanosoma brucei. Description: Compound was evaluated for growth brucei K243 strain. The class given is functional, organism-based.
In experiment [3] the test system is Trypanosoma brucei. Nature of the experiment: Compound was evaluated for growth brucei K269 strain. The class given is functional, organism-based.
Experiment [4] relates to Trypanosoma brucei. Description: Compound was evaluated for growth brucei LAB 110 strain. The class given is functional, organism-based.
Experiment [5] relates to NCI-H157. Description: Compound was evaluated for inhibitory activity against H157 non-small cell lung carcinoma. The class given is functional, cell-based. The note with it: Homo sapiens.
Experiment [6] has as its system NCH82. Nature of the experiment: Compound was evaluated for inhibitory activity against H82 small cell lung carcinoma. In kind it is functional, cell-based. Particulars: Homo sapiens.

Where only a bound is given, the exact number is not on record here.

For orientation: IC50 means the concentration that gives 50% inhibition. Read a low IC50 as greater potency. Regarding `C#CCNCCCNCCCNCCCNCC`, the IC50 in experiment [1] is greater than 100 µM; in experiment [2], greater than 100 µM; in experiment [3] it was greater than 100 µM; in experiment [4] it was greater than 100 µM; in experiment [5] it was 0.7 µM; in experiment [6] it was 5.2 µM.
Turning to `CCNCCCNCCCNCCCNCC1CC1`, the IC50 in experiment [1] is greater than 100 µM; in experiment [2], greater than 100 µM; in experiment [3] it was greater than 100 µM; in experiment [4], greater than 100 µM; in experiment [5], 0.4 µM; in experiment [6], 0.7 µM.
In experiment [5], `CCNCCCNCCCCNCCCNCC` [BIS(ETHYL)SPERMINE] gave an IC50 of 2.9 µM.
`C(CCCNCCCNCC1CCCCCC1)CCCNCCCNCC1CCCCCC1`: the IC50 in experiment [1] was 0.78 µM; in experiment [2] it was 0.98 µM; in experiment [3], 0.69 µM; in experiment [4], 0.125 µM; in experiment [5], 2.1 µM; in experiment [6] it was 1.5 µM.
For `c1ccc(CNCCCNCCCCCCCNCCCNCc2ccccc2)cc1`, the half-maximal inhibitory concentration (IC50) in experiment [1] is 13 µM; in experiment [2] it was 15.1 µM; in experiment [3] it was 12.3 µM; in experiment [4], 14.5 µM.
On to `CCNCCCNCCCNCCCNCC1CCCCCC1`, for which the IC50 in experiment [1] is greater than 100 µM; in experiment [2], greater than 100 µM; in experiment [3], greater than 100 µM; in experiment [4] it was greater than 100 µM; in experiment [5] it was 0.5 µM; in experiment [6] it was 1.7 µM.
As for `CCNCCCNCCCCCCCNCCCNCC1CCCCCC1`, the IC50 is 26.2 µM in experiment [1]; 18.4 µM in experiment [2]; 21 µM in experiment [3]; 18 µM in experiment [4]; greater than 10 µM in experiment [5]; 9 µM in experiment [6].
